Experimental data published in publication PMC9595134, “Novel pituitary actions of GnRH in teleost: The link between reproduction and feeding regulation” (Frontiers in Endocrinology, 2022).
Where a SMILES comes first, the peptide text is derived from it. [ ]: non-standard residue; d: D form. pGlu = O=C1CC[C@@H](C(=O)O)N1

Columns and labels:
pituitary = conditions: teleost; ref [5], [10]; cited from earlier work
Description: Subsequently, GnRH2 had been firstly found in chicken so that this variant was also named as chicken GnRH (cGnRH) ([3]). In addition, the third GnRH variant (GnRH3) was an ubiquitous and unique subtype existing in fish ([3]), which was primitively discovered in salmon so that it was named as salmon GnRH (sGnRH) ([4]). Multiple GnRH variants (two or three forms) are present in all teleosts ([5]), but the receptor selectivity a ...

zebrafish = conditions: intracerebroventricular (ICV) injection, ref [38]; cited from earlier work
goldfish [1] = conditions: intracerebroventricular (ICV) injection, ref [39]; cited from earlier work
[2] = tested on: grass carp pituitary cells; test: qRT-PCR of reproductive hormone genes in pituitary cells; type: cell-based, grass carp (Ctenopharyngodon idellus)
Method: (§1) The preparation of grass carp pituitary cells was performed as mentioned above. After drug treatment, the total RNA of these cells was isolated by TRIzol reagent and reverse transcribed into cDNA with Hifair™ III 1st Strand cDNA Synthesis Kit. The transcript levels of several anorectic peptides (POMCb, CART2, UTS1, NMBa, NMBb, and Lepr) and reproductive genes (GtHα, LHβ, FSHβ, INHBa, SgII, DRD2) were detected by using an ABI 7500 quantitative real-time PCR (qRT-PCR) system (Biosystems, USA) (information of primers for target genes is listed in Supplementary Table S3 ). In this process, a serial gradient dilution of plasmid DNA of these genes was used as a standard for data calibration. The conditions of qRT-PCR were set to 10 min, 95°C, for pre-degeneration; 15 s, 95°C, for degeneration; 30 s, 55°C–60°C, for annealing; 30 s, 72°C, for extending; and 20 s, 82°C, for signal detection with 40 cycles. Finally, the melt curve obtained through each test was used to verify and check the reliability and specificity of the corresponding qRT-PCR.
(§2) The transcript level was detected using qRT-PCR by ABI 7500 software, while the data calibration of each reaction was performed through standard curves with the dynamic range of 10^5 and correlation coefficient >0.95. The transcript level of β-actin was used as an internal control, and target gene mRNA expression was normalized and calculated as a percentage of the mean value (as “% Ctrl”). Based on merging four to eight replicates (as mean ± SEM), the data were analyzed with a one-way ANOVA to differentiate the significant differences from other treatment experiments. The SPSS Statistics 26.0 software was used to do a Dunnett’s post-hoc test. […] The different letters represent a significant difference at p < 0.05 between groups.
To further verify the reproductive function of GnRHs, time- and dose-dependent tests were performed to detect GnRH2- or GnRH3-regulated GtHα, LHβ, FSHβ, INHBa, SgII, and DRD2 mRNA expression in grass carp pituitary cells. […] In the dose-dependent test, a continuous gradient dilution of GnRH2 (0.1–1,000 nM) or GnRH3 (0.1–1,000 nM) was incubated with grass carp pituitary cells for 24 h.
Figure 5 Regulation of reproductive hormone gene mRNA expression by GnRH2 and GnRH3 in grass carp pituitary cells. (A) Time-course experiment of grass carp GnRH2 (1 μM) and GnRH3 (1 μM) on GtHα, LHβ, FSHβ, INHBa, SgII, and DRD2 mRNA expression in grass carp pituitary cells. (B) Dose dependence of a 24-h treatment with increasing levels of GnRH2 and GnRH3 (0.1–1,000 nM) on GtHα, LHβ, FSHβ, INHBa, SgII, and DRD2 mRNA expression in grass carp pituitary cells. After drug treatment, the pituitary cells were extracted to total RNA, reversed transcribed, and used for RT-PCR to detect the target genes’ mRNA expression. […] The different letters represent a significant difference at p < 0.05 between groups (ANOVA followed by a Dunnett test).

[3] = tested on: grass carp pituitary cells; test: qRT-PCR of anorectic genes in pituitary cells; type: cell-based, grass carp (Ctenopharyngodon idellus)
Method: as §1, §2
To further verify the functional role of GnRH2 and GnRH3 on feeding regulation, time- and dose-dependent tests were performed to detect the effect of GnRH2 and GnRH3 on anorectic gene (POMCb, CART2, UTS1, NMBa, NMBb, and LEPR) mRNA expression. In the time-course test, the grass carp pituitary cells were incubated by GnRH2 or GnRH3 (1 μM) for 3, 6, 12, and 24 h, respectively. […] In the dose-dependent test, grass carp pituitary cells were incubated by the continuous gradient dilution of GnRH2 or GnRH3 (0.1–1,000 nM) for 24 h.
Figure 9 Regulation of feeding hormone gene mRNA expression by GnRH2 and GnRH3 in grass carp pituitary cells. (A) Time-course experiment of grass carp GnRH2 (1 μM) and GnRH3 (1 μM) on POMCb, CART2, UTS1, NMBa, NMBb, and LEPR mRNA expression in grass carp pituitary cells. (B) Dose dependence of a 24-h treatment with increasing levels of GnRH2 and GnRH3 (0.1–1,000 nM) on POMCb, CART2, UTS1, NMBa, NMBb, and LEPR mRNA expression in grass carp pituitary cells. […]

goldfish [4] = tested on: goldfish; parameters: method as in PMID 7507838, PMID 8045371; conditions: ref [34], [35], cited from earlier work
[5] = 1 μM, time-dependent, Figure 5A

NC(=O)CNC(=O)[C@@H]1CCCN1C(=O)[C@H](Cc1ccc(O)cc1)NC(=O)[C@H](Cc1c[nH]c2ccccc12)NC(=O)CNC(=O)[C@H](Cc1c[nH]cn1)NC(=O)[C@H](CO)NC(=O)[C@H](Cc1c[nH]c2ccccc12)NC(=O)[C@H](Cc1c[nH]cn1)NC(=O)[C@@H]1CCC(=O)N1 [GnRH2] ([pGlu]HWSHGWYPG-NH2)
effect on LH and FSH secretion in the pituitary (pituitary): could stimulate | effect on food intake, zebrafish (zebrafish): significantly decrease food intake | effect on food intake, goldfish (goldfish [1]): significantly decrease food intake | effect on DRD2 mRNA expression, time course [2, 5]: inhibit | effect on GtHα, LHβ, FSHβ, INHBa, and SgII mRNA expression, time course [2, 5]: significantly induce | effect on DRD2 mRNA expression, dose test ([2]; 0.1–1,000 nM (all treated doses), 24 h, Figure 5B): significantly inhibit | effect on GtHα, LHβ, FSHβ, INHBa, and SgII mRNA expression, dose dependence ([2]; 0.1–1,000 nM, 24 h, dose-dependent, Figure 5B): significantly induce | effect on POMCb, CART2, UTS1, NMBa, NMBb, and LEPR mRNA expression, time course ([3]; 1 μM, 3, 6, 12, and 24 h, time-dependent, Figure 9A): significantly induce | effect on POMCb, CART2, UTS1, NMBa, NMBb, and LEPR mRNA expression, dose dependence ([3]; 0.1–1,000 nM, 24 h, dose-dependent, Figure 9B): significantly induce | LH secretion compared to GnRH3 (goldfish [4]; sexually mature, pre-spawning fish): more robust LH secretion | LH-releasing activity (goldfish [4]; sexually regressed animals): no effect
